In patent publication US8563236B2, “Mutational profiles in HIV-1 reverse transcriptase correlated with phenotypic drug resistance” (priority 1999, dated 2013):

How the values were obtained:
Format in all cases: cell-based, HIV-1
[1] = system: wild-type HXB2-D virus; assay: MT-4 cell CPE protection assay, wild-type control virus
Method: (§1) Mutations were created in HIV-1 RT by site-directed mutagenesis and the mutant RT was then transferred into the HXB2-D wild-type virus background. The specific mutations created in this background are indicated. The nucleoside susceptibility of mutant viruses (fold increase in IC50 value relative to wild-type HXB2-D virus control) was assessed as described in ‘Methods’.
(§2) MT-4 cells (Harada S., et al, Science 229: 563-566 (1985).) were co-transfected with pol gene PCR fragments and the protease-RT deleted HIV-1 molecular clone, pGEM3ΔPRT, as described. See Hertogs K., et al., Antimicrob. Agents Chemother. 42: 269-276 (1998). […] Phenotypic susceptibility to nucleoside analogues was determined using an MT-4 cell viral cytopathic effect (CPE) protection assay as described. Id. Fold resistance values were derived by dividing the mean IC50 for a patient's recombinant virus by the mean IC50 for wild-type control virus (strain HXB2-D).
(§3) Mutations in the RT coding region were created by site-directed mutagenesis of a wild-type HXB2-D EcoRI-PstI restriction enzyme fragment, encompassing the HIV-1 pol gene and cloned into pGEM3 (Promega). Single and multiple nucleotide changes were introduced into RT using the ExSite mutagenesis kit (Strategene). All mutant clones were verified by DNA sequence analysis of the entire RT. PCR fragments were prepared from the mutated clones and the altered RT coding regions were transferred into the HIV-1 HXB2-D genetic background by homologous recombination as described above. The susceptibility of these recombinant viruses to nucleoside analogues was subsequently determined by the MT-4 cell CPE protection assay. Id.

[2] = system: mutants carrying mutation 184V; assay: Drug susceptibility assay, site-directed mutants (group statement); conditions: high resistance caused by mutation 184V
Method: Phenotypic analysis was performed using the recombinant virus assay. See Kellam, P., and B. A. Larder. Antimicrob Agents Chemother 38:23-30 (1994); Hertogs, K., et al., Agents Chemother. 42:269-276 (1998); Pauwels, R., et al., Abstracts of the 2nd International Workshop on HIV Drug Resistance and Treatment Strategies, Abstr. 51. Lake Maggiore, Italy (1998). Briefly, protease (PR) and reverse transcriptase (RT) coding sequences were amplified from patient-derived viral RNA with HIV-1 specific primers. After homologous recombination of amplicons into a PR-RT deleted proviral clone, the resulting recombinant viruses were harvested, titrated and used for in vitro susceptibility testing to antiretroviral drugs. The results of this analysis were expressed as fold-resistance values, reflecting the fold-increase in mean IC50 (μM) of a particular drug when tested with patient-derived recombinant virus isolates, relative to the mean IC50 (μM) of the same drug obtained when tested with a reference wild-type virus isolate (IIIB/LAI).
For the modeling studies, mutations were generated in the RT gene of HXB2, a wild-type laboratory HIV-1 strain, using the QuikChange^J Site-Directed Mutagenesis Kit, Stratagene^7, Stratagene Cloning systems, La Jolla, Calif., USA.
Two of them carried both 44D/A and 181I, while all but one (SDM23) carried ZDV resistance-correlated mutations. […]

[3] = system: HXB2-D virus with RT 69S-[S-S], 210W, 215Y, 62V; assay: MT-4 cell CPE protection assay, site-directed mutant virus
Method: as §1, §2, §3

[4] = system: HXB2-D virus with RT 210W, 215Y, 62V; assay: as above
Method: as §1, §2, §3

[5] = system: HXB2-D virus with RT 210W, 215Y; assay: as above
Method: as §1, §2, §3

[6] = system: HXB2-D virus with RT 69S-[S-S]; assay: as above
Method: as §1, §2, §3

[7] = system: HXB2-D virus with RT 69S-[S-S], 210W, 215Y; assay: as above
Method: as §1, §2, §3

[8] = system: variants with the 69S-[S-S] insert plus AZT resistance mutations; assay: MT-4 cell CPE protection assay, site-directed mutant viruses (group statement)
Method: as §2
as §3, with “Id. […]” for “Id.”

[9] = system: HXB2-D virus with T69A or V75M in a background of AZT mutations; assay: MT-4 cell CPE protection assay, site-directed mutant viruses
Method: as §2, §3
To investigate the significance of the observed mutational patterns correlated with MDR virus we constructed a series of viruses by site-directed mutagenesis with specific changes in a defined genetic background (HXB2-D). […] In addition, the potential role of A62V, a substitution also frequently correlated with the insertions was investigated by adding this mutation to a background of 69S-[S-S] plus 210W/215Y.

[10] = system: samples with AZT and 3TC resistance mutations plus T69A/N or V175M; assay: Recombinant virus assay, MDR patient-derived recombinant HIV variants
From the text: (§4) FIG. 2: Nucleoside analogue susceptibility of MDR patient-derived recombinant HIV variants. Recombinant viruses were produced from patient plasma samples as described in Example 2 and tested for susceptibility to (a) d4T, (b) ddC and (c) ddI. […] Error bars indicate standard errors. Note that the total number (n=310) is higher than the 302 MDR samples described because a small minority were 69D/N and 75M double mutants and are represented in both groups.
as §2
(§5) From this analysis, 302 samples were identified with four-fold or greater increases in IC50 (relative to a wild-type control virus) to at least four of these inhibitors. Thus, a substantial number of MDR viruses were present in the sample population.
Genotypic analysis was performed on all 892 samples by dideoxy-nucleotide sequencing. […]

[11] = system: codon 69 insertion mutants
From the text: as §4, §2, §5
(§6) Genotypic analysis was performed on all 892 samples by dideoxy-nucleotide sequencing. […] A comparison of the incidence of specific RT mutations in MDR samples versus non-MDR in the population surveyed is shown in FIG. 1. This analysis highlighted the incidence of the codon 151 mutational cluster in the MDR group. In addition, a novel family of amino acid insertions and rearrangements between codons 67 and 70 were also prevalent in the MDR group. These two patterns of mutations were correlated with high-level phenotypic multi-nucleoside resistance (FIG. 2), 27 samples having the codon 151 cluster and 45 samples having insertions and rearrangements (typically a T69S substitution, followed by insertion of two amino acids).

[12] = system: codon 151 cluster viruses
From the text: as §4, §2, §5, §6

[13] = Human immunodeficiency virus 1, MT4, mean values

Structure (SMILES) | IC50 [1, 13] [nM] | resistance (fold) [2] [fold] | Fold increase in IC50 ([3]; {}) [fold] | Fold increase in IC50 ([4]; {}) [fold] | Fold increase in IC50 ([5]; {}) [fold] | Fold increase in IC50 ([6]; {}) [fold] | Fold increase in IC50 ([7]; {}) [fold] | susceptibility [8] | IC50 ([1]; mean values) [nM] | Fold increase in IC50 ([3]; mutant genotype 69S-[S-S], 210W, 215Y, 62V, relative to wild-type HXB2-D, mean of two determinations) [fold] | Fold increase in IC50 ([4]; mutant genotype 210W, 215Y, 62V, relative to wild-type HXB2-D, mean of two determinations) [fold] | Fold increase in IC50 ([5]; mutant genotype 210W, 215Y, relative to wild-type HXB2-D, mean of two determinations) [fold] | Fold increase in IC50 ([6]; mutant genotype 69S-[S-S], relative to wild-type HXB2-D, mean of two determinations) [fold] | Fold increase in IC50 ([7]; mutant genotype 69S-[S-S], 210W, 215Y, relative to wild-type HXB2-D, mean of two determinations) [fold] | resistance conferred [9] | level of resistance [10] | mean fold increase in IC50 (resistance) [11] [fold] | mean fold increase in IC50 (resistance) [12] [fold]
Nc1ccn([C@@H]2CS[C@H](CO)O2)c(=O)n1 [3TC, lamivudine] | 1670 | > 62 | 15 | 1.3 | 3.8 | 6.2 | 20 | – | – | – | – | – | – | – | – | – | – | –
Cc1cn([C@H]2C[C@H](N=[N+]=[N-])[C@@H](CO)O2)c(=O)[nH]c1=O [AZT, zidovudine] | – | – | – | – | – | – | – | decreased susceptibility | – | – | – | – | – | – | – | – | – | –
Nc1nc(NC2CC2)c2ncn(C3C=CC(CO)C3)c2n1 (stereo not drawn) [compound 1592, 4-[(2-amino-6-cyclopropyl-amino)-9H-purin-9-yl]-2-cyclopentene-1-methanol] | – | – | – | – | – | – | – | decreased susceptibility | 2900 | 5.4 | 0.7 | 1.5 | 2.6 | 4.6 | – | – | – | –
Cc1cn([C@H]2C=C[C@@H](CO)O2)c(=O)[nH]c1=O [d4T, stavudine] | 2390 | – | 5.2 | 0.7 | 1.1 | 2.3 | 4.8 | – | – | – | – | – | – | – | little or no resistance | modest levels of resistance | > 10 | > 10
Nc1ccn([C@H]2CC[C@@H](CO)O2)c(=O)n1 [ddC, zalcitabine] | 1410 | – | 2.7 | 0.8 | 1.2 | 2.1 | 4.2 | – | – | – | – | – | – | – | little or no resistance | modest levels of resistance | > 10 | > 10
O=c1[nH]cnc2c1ncn2[C@H]1CC[C@@H](CO)O1 [ddI, didanosine] | 4600 | – | 1.8 | 0.5 | 1.2 | 1.7 | 2.1 | – | – | – | – | – | – | – | little or no resistance | – | – | –
